Measured values reported in patent publication US6358885B1, “Substituted phenylheterocyclic herbicides” (Mississippi State University, priority 1992, dated 2002).

Legend:
purple nutsedge = assay: Test B preemergence/postemergence greenhouse plant response rating 0 to 10; format: in vivo, Cyperus rotundus; conditions: Rate 200 g/ha, PREEMERGENCE; 0 to 10 scale
Summary of the method: (§1)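 Test chemicals were sprayed onto freshly planted seed and, concurrently, onto young plants between the one and four leaf stage. After a twelve- to sixteen-day greenhouse period, each species was visually compared with untreated controls.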

wild oat = assay: Test C preemergence/postemergence greenhouse plant response rating 0 to 100; format: in vivo, Avena fatua; conditions: for Plant response rating, Wild oat: 0 to 100 scale
Summary of the method: (§2)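 Compounds in non-phytotoxic solvent applied preemergence to sandy loam one day after planting, postemergence at the 1–4 leaf stage, or to ~2.5 cm floodwater over silt loam.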

giant foxtail = assay: Test B preemergence/postemergence greenhouse plant response rating 0 to 10; format: in vivo, Setaria faberii; conditions: 0 to 10 scale
Summary of the method: as §1

rice = assay: Test C flood test plant response rating 0 to 100; format: in vivo, Oryza sativa; conditions: for Plant response rating Rice Japonica: flood test species listed under POSTEMERGENCE, 0 to 100 scale
Summary of the method: as §2

umbrella sedge = assay: Test C flood test plant response rating 0 to 100; format: in vivo, Cyperus difformis; conditions: for Plant response rating Umbrella sedge: flood test species listed under POSTEMERGENCE, 0 to 100 scale
Summary of the method: as §2

rape = assay: Test C preemergence/postemergence greenhouse plant response rating 0 to 100; format: in vivo, Brassica napus; conditions: for Plant response rating, Rape: 0 to 100 scale
Summary of the method: as §2

cocklebur = assay: Test B preemergence/postemergence greenhouse plant response rating 0 to 10; format: in vivo, Xanthium pensylvanicum; conditions: for Plant response rating, Cocklebur: 0 to 10 scale
Summary of the method: as §1

barnyardgrass = assay: as above; format: in vivo, Echinochloa crus-galli; conditions: for Plant response rating, Barnyardgrass: 0 to 10 scale
Summary of the method: as §1

chickweed = assay: Test C preemergence/postemergence greenhouse plant response rating 0 to 100; format: in vivo, Stellaria media; conditions: for Plant response rating, Chickweed: 0 to 100 scale
Summary of the method: as §2

crabgrass = assay: Test B preemergence/postemergence greenhouse plant response rating 0 to 10; format: in vivo, Digitaria spp.; conditions: for Plant response rating, Crabgrass: 0 to 10 scale
Summary of the method: as §1

[1] = POSTEMERGENCE section, flood test, Rate 4 g/ha
[2] = Rate 16 g/ha, under POSTEMERGENCE head (flood test species)

C#CCOc1cc(-c2nn3c(c2Br)CCCC3)c(F)cc1Cl [Compound 26]
Plant response rating, Nutsedge (purple nutsedge): 0
Plant response rating, Wild oat (wild oat; POSTEMERGENCE, 62 g/ha): 30
Plant response rating, Wild oat (wild oat; POSTEMERGENCE, 250 g/ha): 50
Plant response rating (0 to 100), Wild oat (wild oat; POSTEMERGENCE, Rate 4 g/ha): 20
Plant response rating, Wild oat (wild oat; PREEMERGENCE, 250 g/ha): 30
Plant response rating (0 to 100), Wild oat (wild oat; PREEMERGENCE, Rate 4 g/ha): 0
Plant response rating (0 to 100), Wild oat (wild oat; Rate 16 g/ha, POSTEMERGENCE): 30
Plant response rating (0 to 100), Wild oat (wild oat; Rate 16 g/ha, PREEMERGENCE): 0
Plant response rating, Giant foxtail (giant foxtail; POSTEMERGENCE, Rate 50 g/ha): 4
Plant response rating, Giant foxtail (giant foxtail; POSTEMERGENCE, Rate 200 g/ha): 6
Plant response rating, Giant foxtail (giant foxtail; PREEMERGENCE, Rate 50 g/ha): 6
Plant response rating, Giant foxtail (giant foxtail; Rate 200 g/ha, PREEMERGENCE): 10
Plant response rating (0 to 100), Rice Japonica (rice; [1]): 40
Plant response rating (0 to 100), Rice Japonica (rice; [2]): 65
Plant response rating Rice Japonica (rice; 62 g/ha): 80
Plant response rating Rice Japonica (rice; 250 g/ha): 85
Plant response rating (0 to 100), Umbrella sedge (umbrella sedge; [1]): 0
Plant response rating (0 to 100), Umbrella sedge (umbrella sedge; [2]): 70
Plant response rating Umbrella sedge (umbrella sedge; 62 g/ha): 95
Plant response rating Umbrella sedge (umbrella sedge; 250 g/ha): 100
Plant response rating, Rape (rape; POSTEMERGENCE, 62 g/ha): 100
Plant response rating, Rape (rape; POSTEMERGENCE, 250 g/ha): 100
Plant response rating (0 to 100), Rape (rape; POSTEMERGENCE, Rate 4 g/ha): 80
Plant response rating, Rape (rape; PREEMERGENCE, 62 g/ha): 20
Plant response rating, Rape (rape; PREEMERGENCE, 250 g/ha): 30
Plant response rating (0 to 100), Rape (rape; PREEMERGENCE, Rate 4 g/ha): 0
Plant response rating (0 to 100), Rape (rape; Rate 16 g/ha, POSTEMERGENCE): 90
Plant response rating (0 to 100), Rape (rape; Rate 16 g/ha, PREEMERGENCE): 0
Plant response rating (0 to 10 scale), Cocklebur (cocklebur; POSTEMERGENCE, Rate 50 g/ha): 10
Plant response rating, Cocklebur (cocklebur; POSTEMERGENCE, Rate 200 g/ha): 10
Plant response rating, Cocklebur (cocklebur; PREEMERGENCE, Rate 50 g/ha): 1
Plant response rating, Cocklebur (cocklebur; Rate 200 g/ha, PREEMERGENCE): 9
Plant response rating (0 to 10 scale), Barnyardgrass (barnyardgrass; POSTEMERGENCE, Rate 50 g/ha): 5
Plant response rating, Barnyardgrass (barnyardgrass; POSTEMERGENCE, Rate 200 g/ha): 7
Plant response rating, Barnyardgrass (barnyardgrass; PREEMERGENCE, Rate 50 g/ha): 2
Plant response rating, Barnyardgrass (barnyardgrass; Rate 200 g/ha, PREEMERGENCE): 7
Plant response rating, Chickweed (chickweed; POSTEMERGENCE, 62 g/ha): 100
Plant response rating, Chickweed (chickweed; POSTEMERGENCE, 250 g/ha): 100
Plant response rating, Chickweed (chickweed; PREEMERGENCE, 62 g/ha): 100
Plant response rating, Chickweed (chickweed; PREEMERGENCE, 250 g/ha): 100
Plant response rating (0 to 100), Chickweed (chickweed; PREEMERGENCE, Rate 4 g/ha): 50
Plant response rating (0 to 100), Chickweed (chickweed; Rate 4 g/ha, POSTEMERGENCE): 50
Plant response rating (0 to 100), Chickweed (chickweed; Rate 16 g/ha, POSTEMERGENCE): 80
Plant response rating (0 to 100), Chickweed (chickweed; Rate 16 g/ha, PREEMERGENCE): 50
Plant response rating (0 to 10 scale), Crabgrass (crabgrass; POSTEMERGENCE, Rate 50 g/ha): 2
Plant response rating, Crabgrass (crabgrass; POSTEMERGENCE, Rate 200 g/ha): 6
Plant response rating, Crabgrass (crabgrass; PREEMERGENCE, Rate 50 g/ha): 5
Plant response rating, Crabgrass (crabgrass; Rate 200 g/ha, PREEMERGENCE): 9
